From ChEMBL document CHEMBL1781926, “Synthesis of 1-naphtylpiperazine derivatives as serotoninergic ligands and their evaluation as antiproliferative agents” (Eur J Med Chem, 2011)
The source made the active and inactive calls. No cut-off for these calls is given here.

What was measured:
[1] = target: D(1A) dopamine receptor (Rattus norvegicus, UniProt P18901); assay: Displacement of [3H]SCH 23390 from dopamine D1 receptor in rat corpora striatum homogenates after 15 mins by liquid scintillation counting
Sequence of D(1A) dopamine receptor (P18901 whole entry): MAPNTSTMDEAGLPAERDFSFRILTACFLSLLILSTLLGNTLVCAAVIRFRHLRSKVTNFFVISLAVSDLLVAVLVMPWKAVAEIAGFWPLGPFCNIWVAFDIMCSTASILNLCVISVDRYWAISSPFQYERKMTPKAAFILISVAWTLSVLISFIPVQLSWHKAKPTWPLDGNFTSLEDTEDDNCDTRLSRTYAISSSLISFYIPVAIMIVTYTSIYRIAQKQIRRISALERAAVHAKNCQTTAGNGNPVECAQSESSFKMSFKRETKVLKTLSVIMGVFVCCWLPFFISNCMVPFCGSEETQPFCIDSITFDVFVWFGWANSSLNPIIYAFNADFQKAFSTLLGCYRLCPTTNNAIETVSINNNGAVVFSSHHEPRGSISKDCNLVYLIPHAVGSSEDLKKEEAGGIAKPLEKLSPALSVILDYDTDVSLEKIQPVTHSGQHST

[2] = target: D(2) dopamine receptor (Rattus norvegicus, UniProt P61169); assay: Displacement of [3H]spiperone from dopamine D2 receptor in rat corpora striatum homogenates after 15 mins by liquid scintillation counting
Sequence of D(2) dopamine receptor (P61169 whole entry): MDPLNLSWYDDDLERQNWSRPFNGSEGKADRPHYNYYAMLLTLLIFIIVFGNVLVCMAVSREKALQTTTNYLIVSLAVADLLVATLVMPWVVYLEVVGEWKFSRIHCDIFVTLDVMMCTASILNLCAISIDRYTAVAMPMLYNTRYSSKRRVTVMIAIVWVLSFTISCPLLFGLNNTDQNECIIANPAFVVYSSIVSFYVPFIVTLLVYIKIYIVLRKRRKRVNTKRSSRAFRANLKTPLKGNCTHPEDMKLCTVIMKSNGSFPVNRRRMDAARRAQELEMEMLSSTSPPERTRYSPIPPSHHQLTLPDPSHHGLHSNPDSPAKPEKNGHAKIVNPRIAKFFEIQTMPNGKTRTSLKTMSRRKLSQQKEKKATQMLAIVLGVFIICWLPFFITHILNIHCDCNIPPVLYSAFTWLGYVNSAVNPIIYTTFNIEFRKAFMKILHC

[3] = target: 5-hydroxytryptamine receptor 2A (Rattus norvegicus, UniProt P14842); assay: Displacement of [3H]Ketanserin from 5HT2A receptor in Sprague-Dawley rat frontal cortical homogenates after 15 mins
Sequence of 5-hydroxytryptamine receptor 2A (P14842 whole entry): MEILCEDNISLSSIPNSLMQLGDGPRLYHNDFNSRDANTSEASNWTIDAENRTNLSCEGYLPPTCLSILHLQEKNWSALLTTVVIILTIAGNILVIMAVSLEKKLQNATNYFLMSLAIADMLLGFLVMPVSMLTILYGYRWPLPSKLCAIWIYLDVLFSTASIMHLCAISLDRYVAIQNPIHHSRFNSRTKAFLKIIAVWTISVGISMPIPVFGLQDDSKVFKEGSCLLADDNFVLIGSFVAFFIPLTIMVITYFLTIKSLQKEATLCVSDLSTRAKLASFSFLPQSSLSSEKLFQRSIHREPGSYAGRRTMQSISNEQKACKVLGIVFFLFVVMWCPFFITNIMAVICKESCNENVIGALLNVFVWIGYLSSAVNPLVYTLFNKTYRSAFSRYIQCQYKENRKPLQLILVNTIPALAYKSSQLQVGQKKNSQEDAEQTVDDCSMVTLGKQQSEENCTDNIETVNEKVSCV

[4] = target: T1, 5-hydroxytryptamine receptor 1A (Rattus norvegicus, UniProt P19327); assay: Displacement of [3H]8-OH-DPAT from 5HT1A receptor in Sprague-Dawley rat brain cortex homogenates after 30 mins by liquid scintillation counting; format: tissue-based
T1 sequence (P19327 whole entry): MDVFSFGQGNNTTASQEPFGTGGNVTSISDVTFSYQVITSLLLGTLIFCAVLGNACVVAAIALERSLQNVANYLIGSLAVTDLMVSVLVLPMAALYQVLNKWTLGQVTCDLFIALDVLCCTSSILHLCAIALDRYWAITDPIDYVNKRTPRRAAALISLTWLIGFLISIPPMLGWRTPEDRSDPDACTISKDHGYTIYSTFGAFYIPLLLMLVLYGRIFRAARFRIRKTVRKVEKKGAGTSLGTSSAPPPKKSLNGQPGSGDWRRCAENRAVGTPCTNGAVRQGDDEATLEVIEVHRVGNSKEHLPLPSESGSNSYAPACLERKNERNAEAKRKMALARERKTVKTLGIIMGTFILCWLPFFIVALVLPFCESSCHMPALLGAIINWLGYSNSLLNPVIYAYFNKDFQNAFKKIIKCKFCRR

[5] = tested on: PC-3; assay: Antiproliferative activity against human PC3 cells assessed as growth inhibition after 96 hrs by SRB assay; format: functional, cell-based
[6] = target: T2, Adrenergic receptor alpha-2 (Rattus norvegicus, UniProt P22086+P19328+P22909); assay: Displacement [3H]yohimbine from alpha 2 adrenergic receptor in rat brain cortex homogenates after 30 mins by liquid scintillation counting; format: tissue-based
T2 sequence (P22086 whole entry): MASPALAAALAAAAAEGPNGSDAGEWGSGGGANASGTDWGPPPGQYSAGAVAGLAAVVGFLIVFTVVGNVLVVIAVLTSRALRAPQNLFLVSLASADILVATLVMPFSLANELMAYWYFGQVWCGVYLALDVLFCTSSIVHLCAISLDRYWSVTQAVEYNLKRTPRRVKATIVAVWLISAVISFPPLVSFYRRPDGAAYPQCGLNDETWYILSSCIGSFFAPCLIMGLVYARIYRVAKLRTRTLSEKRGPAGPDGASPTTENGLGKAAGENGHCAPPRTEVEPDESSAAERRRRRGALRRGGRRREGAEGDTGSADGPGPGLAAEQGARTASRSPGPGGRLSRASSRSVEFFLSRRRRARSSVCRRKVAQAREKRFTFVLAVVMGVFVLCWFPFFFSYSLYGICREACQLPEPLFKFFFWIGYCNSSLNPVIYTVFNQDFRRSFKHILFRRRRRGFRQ
T2 sequence (P19328 whole entry): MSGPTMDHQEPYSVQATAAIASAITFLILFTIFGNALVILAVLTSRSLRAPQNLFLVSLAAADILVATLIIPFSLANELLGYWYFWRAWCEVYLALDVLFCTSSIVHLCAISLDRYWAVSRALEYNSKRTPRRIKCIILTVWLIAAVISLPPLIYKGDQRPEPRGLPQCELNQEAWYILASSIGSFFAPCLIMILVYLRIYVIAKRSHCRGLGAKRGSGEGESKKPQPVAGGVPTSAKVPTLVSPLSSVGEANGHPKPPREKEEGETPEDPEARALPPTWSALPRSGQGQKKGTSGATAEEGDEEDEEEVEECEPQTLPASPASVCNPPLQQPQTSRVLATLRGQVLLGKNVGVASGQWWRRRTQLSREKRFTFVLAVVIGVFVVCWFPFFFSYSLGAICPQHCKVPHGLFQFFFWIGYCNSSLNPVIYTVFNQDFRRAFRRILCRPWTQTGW
T2 sequence (P22909 whole entry): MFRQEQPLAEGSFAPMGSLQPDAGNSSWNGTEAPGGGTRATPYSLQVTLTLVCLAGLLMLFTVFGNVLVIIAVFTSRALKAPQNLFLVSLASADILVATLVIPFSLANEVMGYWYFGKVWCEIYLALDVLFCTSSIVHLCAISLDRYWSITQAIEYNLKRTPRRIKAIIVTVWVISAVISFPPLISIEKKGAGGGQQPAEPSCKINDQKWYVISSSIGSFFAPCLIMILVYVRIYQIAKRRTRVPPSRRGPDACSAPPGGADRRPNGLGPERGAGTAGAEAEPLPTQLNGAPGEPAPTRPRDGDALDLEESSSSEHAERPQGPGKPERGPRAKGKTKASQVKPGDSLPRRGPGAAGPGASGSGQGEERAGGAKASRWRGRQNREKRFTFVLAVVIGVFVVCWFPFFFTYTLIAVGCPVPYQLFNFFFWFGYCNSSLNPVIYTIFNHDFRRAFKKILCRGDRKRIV

[7] = target: T3, Adrenergic receptor alpha-1 (Rattus norvegicus, UniProt P15823+P23944+P43140); assay: Displacement [3H]prazosin from alpha1 adrenergic receptor in rat brain cortex homogenates after 30 mins by liquid scintillation counting; format: tissue-based
T3 sequence (P15823 whole entry): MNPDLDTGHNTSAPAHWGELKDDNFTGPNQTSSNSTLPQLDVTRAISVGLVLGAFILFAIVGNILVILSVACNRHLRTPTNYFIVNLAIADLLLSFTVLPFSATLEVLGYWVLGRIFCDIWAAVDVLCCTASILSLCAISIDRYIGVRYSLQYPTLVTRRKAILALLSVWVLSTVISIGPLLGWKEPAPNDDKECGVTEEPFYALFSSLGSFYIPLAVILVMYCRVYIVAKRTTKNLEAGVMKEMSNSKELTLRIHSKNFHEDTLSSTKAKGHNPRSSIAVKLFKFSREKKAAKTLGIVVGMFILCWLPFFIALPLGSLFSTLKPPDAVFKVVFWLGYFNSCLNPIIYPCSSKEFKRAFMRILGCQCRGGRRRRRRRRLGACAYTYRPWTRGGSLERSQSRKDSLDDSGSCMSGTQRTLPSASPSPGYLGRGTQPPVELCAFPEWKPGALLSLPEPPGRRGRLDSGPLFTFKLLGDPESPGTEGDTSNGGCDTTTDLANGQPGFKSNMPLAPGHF
T3 sequence (P23944 whole entry): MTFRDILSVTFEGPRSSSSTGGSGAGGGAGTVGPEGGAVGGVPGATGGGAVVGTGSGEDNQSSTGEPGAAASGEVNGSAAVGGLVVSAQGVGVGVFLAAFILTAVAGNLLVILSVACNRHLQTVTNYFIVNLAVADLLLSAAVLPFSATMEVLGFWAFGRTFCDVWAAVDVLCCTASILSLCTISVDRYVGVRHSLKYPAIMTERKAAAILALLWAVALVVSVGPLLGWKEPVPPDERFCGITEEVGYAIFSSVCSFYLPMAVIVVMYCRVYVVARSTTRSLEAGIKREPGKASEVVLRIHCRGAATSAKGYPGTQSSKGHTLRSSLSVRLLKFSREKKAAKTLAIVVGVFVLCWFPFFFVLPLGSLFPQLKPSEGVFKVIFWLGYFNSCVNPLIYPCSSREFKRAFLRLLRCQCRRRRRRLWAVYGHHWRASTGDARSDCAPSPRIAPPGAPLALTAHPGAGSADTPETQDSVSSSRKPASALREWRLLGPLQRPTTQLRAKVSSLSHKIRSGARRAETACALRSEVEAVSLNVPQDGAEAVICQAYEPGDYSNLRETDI
T3 sequence (P43140 whole entry): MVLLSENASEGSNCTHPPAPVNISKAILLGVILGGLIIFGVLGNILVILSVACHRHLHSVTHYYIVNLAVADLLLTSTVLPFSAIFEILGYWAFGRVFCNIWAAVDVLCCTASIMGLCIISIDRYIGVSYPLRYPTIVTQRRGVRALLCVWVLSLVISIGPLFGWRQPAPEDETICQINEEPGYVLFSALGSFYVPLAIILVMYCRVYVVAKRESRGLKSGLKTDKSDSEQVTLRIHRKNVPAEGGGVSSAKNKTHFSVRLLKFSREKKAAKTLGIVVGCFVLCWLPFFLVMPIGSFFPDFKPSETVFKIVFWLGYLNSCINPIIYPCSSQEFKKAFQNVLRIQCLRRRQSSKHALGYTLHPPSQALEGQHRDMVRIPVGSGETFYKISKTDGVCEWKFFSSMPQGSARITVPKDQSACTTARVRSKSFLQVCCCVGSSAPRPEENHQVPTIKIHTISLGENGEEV

[8] = target: T4, 5-hydroxytryptamine receptor 2C (Rattus norvegicus, UniProt P08909); assay: Displacement of [3H]mesulergine from 5HT2C receptor in Sprague-Dawley rat frontal cortical homogenates after 15 mins
T4 sequence (P08909 whole entry): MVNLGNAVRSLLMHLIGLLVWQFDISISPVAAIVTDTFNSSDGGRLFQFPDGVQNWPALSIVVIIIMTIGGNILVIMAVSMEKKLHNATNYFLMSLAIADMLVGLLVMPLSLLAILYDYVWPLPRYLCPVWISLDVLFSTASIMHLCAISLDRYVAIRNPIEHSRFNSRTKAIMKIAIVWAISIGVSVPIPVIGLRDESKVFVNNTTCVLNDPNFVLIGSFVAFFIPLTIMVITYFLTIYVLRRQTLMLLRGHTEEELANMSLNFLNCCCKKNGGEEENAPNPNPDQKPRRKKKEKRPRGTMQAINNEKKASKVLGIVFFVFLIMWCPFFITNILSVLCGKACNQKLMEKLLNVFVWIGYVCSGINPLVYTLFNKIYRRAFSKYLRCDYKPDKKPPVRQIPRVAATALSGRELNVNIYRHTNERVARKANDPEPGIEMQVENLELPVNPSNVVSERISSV

[9] = tested on: PC-3; assay: Cell cycle arrest in human PC3 cells assessed as accumulation at G1 phase at 15 uM after 24 hrs using propidium iodide staining by flow cytometry (reference value: 46.97 %); format: functional
[10] = tested on: PC-3; assay: Cell cycle arrest in human PC3 cells assessed as accumulation at G2 phase at 15 uM after 24 hrs using propidium iodide staining by flow cytometry (reference value: 18.19 %); format: functional
[11] = tested on: PC-3; assay: Induction of apoptosis in human PC3 cells at 15 uM after 48 hrs using propidium iodide staining by flow cytometry (reference value: 0.84 %); format: functional
[12] = tested on: PC-3; assay: Cell cycle arrest in human PC3 cells assessed as accumulation at S phase at 15 uM after 72 hrs using propidium iodide staining by flow cytometry (reference value: 37.73 %); format: functional
[13] = tested on: PC-3; assay: Cell cycle arrest in human PC3 cells assessed as accumulation at G1 phase at 15 uM after 48 hrs using propidium iodide staining by flow cytometry (reference value: 54.14 %); format: functional
[14] = tested on: PC-3; assay: Induction of apoptosis in human PC3 cells at 15 uM after 72 hrs using propidium iodide staining by flow cytometry (reference value: 1.79 %); format: functional
[15] = tested on: PC-3; assay: Cell cycle arrest in human PC3 cells assessed as accumulation at G2 phase at 15 uM after 48 hrs using propidium iodide staining by flow cytometry (reference value: 13.36 %); format: functional
[16] = tested on: PC-3; assay: Cell cycle arrest in human PC3 cells assessed as accumulation at G1 phase at 15 uM after 72 hrs using propidium iodide staining by flow cytometry (reference value: 42.19 %); format: functional
[17] = tested on: PC-3; assay: Cell cycle arrest in human PC3 cells assessed as accumulation at G2 phase at 15 uM after 72 hrs using propidium iodide staining by flow cytometry (reference value: 20.18 %); format: functional
[18] = tested on: PC-3; assay: Cell cycle arrest in human PC3 cells assessed as accumulation at S phase at 15 uM after 24 hrs using propidium iodide staining by flow cytometry (reference value: 34.84 %); format: functional
[19] = tested on: PC-3; assay: Induction of apoptosis in human PC3 cells at 15 uM after 24 hrs using propidium iodide staining by flow cytometry (reference value: 1.27 %); format: functional
[20] = tested on: PC-3; assay: Cell cycle arrest in human PC3 cells assessed as accumulation at S phase at 15 uM after 48 hrs using propidium iodide staining by flow cytometry (reference value: 38.16 %); format: functional
[21] = tested on: PC-3; assay: Inhibition of serotonin-induced MAPK phosphorylation in human PC3 cells at 15 uM after 48 hrs by Western blotting; format: cell-based
[22] = target: RAC-alpha serine/threonine-protein kinase (Homo sapiens) (UniProt P31749); assay: Inhibition of serotonin-induced AKT phosphorylation in human PC3 cells at 15 uM after 48 hrs by Western blotting; format: cell-based; conditions: PC-3
Sequence of RAC-alpha serine/threonine-protein kinase (Homo sapiens) (P31749 whole entry): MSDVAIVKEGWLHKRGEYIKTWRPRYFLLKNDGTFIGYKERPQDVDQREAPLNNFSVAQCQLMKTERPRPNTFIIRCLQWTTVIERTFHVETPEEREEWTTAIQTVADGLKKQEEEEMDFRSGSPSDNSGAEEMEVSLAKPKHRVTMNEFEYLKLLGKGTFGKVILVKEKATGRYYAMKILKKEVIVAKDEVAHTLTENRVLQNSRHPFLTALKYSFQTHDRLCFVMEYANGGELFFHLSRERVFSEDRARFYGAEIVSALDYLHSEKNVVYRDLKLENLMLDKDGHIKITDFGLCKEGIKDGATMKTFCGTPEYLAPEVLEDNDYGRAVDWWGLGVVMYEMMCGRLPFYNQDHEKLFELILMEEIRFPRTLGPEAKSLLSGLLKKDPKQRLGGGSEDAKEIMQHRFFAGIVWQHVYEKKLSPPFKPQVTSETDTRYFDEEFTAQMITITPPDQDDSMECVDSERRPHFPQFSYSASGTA

| SMILES | growth inhibition (GI) [5] | Activity [9] | Activity [10] | Activity [11] | Activity [12] | Activity [13] | Activity [14] | Activity [15] | Activity [16] | Activity [17] | Activity [18] | Activity [19] | Activity [20] | also measured |
| --- | --- | --- | --- | --- | --- | --- | --- | --- | --- | --- | --- | --- | --- | --- |
| N#CNC(=NCCCN1CCN(c2cccc3ccccc23)CC1)c1ccncc1 |  |  |  |  |  |  |  |  |  |  |  |  |  | Ki [1]: > 10000 nM; Ki [2]: 1600 nM; Ki [3]: 172 nM; Ki [4]: > 10000 nM |
| N#C/N=C(\NCCCN1CCN(c2cccc3ccccc23)CC1)c1ccncc1 | inactive |  |  |  |  |  |  |  |  |  |  |  |  | Ki [6]: 878 nM; Ki [7]: > 10000 nM; Ki [8]: Not Active |
| Br.COc1ccccc1N1CCN(CCCCN2C(=O)c3ccccc3C2=O)CC1 | inactive | 37.1% | 24.74% | 1.77% | 43.02% | 49.53% | 3.05% | 14.88% | 45.73% | 11.26% | 38.16% | 2.42% | 35.59% |  |
| Br.CCCN(CCC)[C@H]1CCc2cccc(O)c2C1 | inactive | 40.62% | 24.42% | 2.2% | 36.5% | 47.78% | 2.65% | 14.92% | 50.34% | 13.17% | 34.96% | 0.73% | 37.31% | inhibition [21]: inactive; inhibition [22]: Active |
